Measured values as given in the OPERA property sets (Mansouri et al. 2018).

Row | SMILES | melting point | boiling point | ready biodegradability | log10 vapour pressure (mmHg) | log10 biodegradation half-life (days) | log10 Koc (L/kg) | log10 Koa | log10 Henry constant (atm·m³/mol)
1 | O=C(O)Cc1cccc(Cl)c1 | 78.8 °C |  |  |  |  |  |  | 
2 | CCCCCCCCCCCCN(C)C | 22 °C | 260 °C | readily biodegradable |  |  |  |  | 
3 | COS(=O)(=O)c1ccc(C)cc1 | 28.5 °C | 292 °C |  |  |  |  |  | 
4 | CCC(Cl)[N+](=O)[O-] (centres undefined) |  | 142 °C |  |  |  |  |  | 
5 | CCCCNc1cc(C(=O)O)cc(S(N)(=O)=O)c1Oc1ccccc1 | 230 °C |  |  |  |  |  |  | 
6 | CCCCCCSCCCCCC |  | 230 °C |  |  |  |  |  | 
7 | c1cscn1 |  | 118 °C |  | 1.23 |  |  |  | 
8 | C=C[C@H]1C[N@@]2CC[C@H]1C[C@H]2C12Nc3ccccc3C1(O)CCO2 (some centres undefined) | 186 °C |  |  |  |  |  |  | 
9 | CCOC(=O)C(CC)C(C)=O (centres undefined) |  | 198 °C |  |  |  |  |  | 
10 | C#CCOC(=O)[C@@H](C)Oc1ccc(Oc2ncc(Cl)cc2F)cc1 | 59.5 °C |  |  | -7.62 |  |  |  | 
11 | Cc1cc2ccccc2c2ccc3ccccc3c12 | 118 °C |  |  |  |  |  |  | 
12 | O=C(O)c1ccc(C(=O)O)cc1 |  |  | readily biodegradable | -5.04 |  |  |  | 
13 | CCCCCCCCCCCCCCCCCCCCCCCCCCC | 59.5 °C | 442 °C |  | -6.55 | 2.15 |  |  | 
14 | CC(=O)[C@@]1(C)CC[C@H]2[C@@H]3CCC4=CC(=O)CCC4=C3CC[C@@]21C | 106 °C |  |  |  |  |  |  | 
15 | CCC(C)CCC(C)CC (centres undefined) |  | 161 °C |  |  |  |  |  | 
16 | BrC(Br)=C(Br)Br | 56.5 °C | 226 °C |  |  |  |  |  | 
17 | CCN(CC)CCN1C(=O)CN=C(c2ccccc2F)c2cc(Cl)ccc21 | 79.5 °C |  |  |  |  |  |  | 
18 | O=S(c1ccccc1)c1ccccc1 | 71.2 °C |  |  |  |  |  |  | 
19 | CCOc1ccc([N+](=O)[O-])cc1N | 96.5 °C |  |  |  |  |  |  | 
20 | CCCCCCCCCCCC(N)=O | 110 °C |  |  |  |  |  |  | 
21 | CC(C)CN1CCOCC1 |  | 181 °C | not readily biodegradable |  |  |  |  | 
22 | O=COC1CCCCC1 |  | 163 °C |  |  |  |  |  | 
23 | CCN(CC)C(=S)SC(=S)N(CC)CC | 31 °C |  |  |  |  |  |  | 
24 | CCN(CC)C(=O)C1CN2CCc3cc(OC)c(OC)cc3C2CC1OC(C)=O (centres undefined) | 131 °C |  |  |  |  |  |  | 
25 | O=C(OCC(=O)N1CCOCC1)c1ccccc1 | 104 °C |  |  |  |  |  |  | 

Row | SMILES | melting point | boiling point | ready biodegradability | log10 vapour pressure (mmHg) | log10 biodegradation half-life (days) | log10 Koc (L/kg) | log10 Koa | log10 Henry constant (atm·m³/mol)
26 | Clc1ccccn1 | -46.5 °C | 170 °C | not readily biodegradable | 0.338 |  |  |  | 
27 | Cn1c(=O)on(-c2ccc(Cl)c(Cl)c2)c1=O | 123 °C |  |  | -6 |  | 3.48 |  | 
28 | CCOC(=O)c1cccc(Br)c1 |  | 261 °C |  |  |  |  |  | 
29 | O=C(Cl)c1ccc(Cl)cc1 | 16 °C | 222 °C |  |  |  |  |  | 
30 | O=C1C(Cl)=C(Nc2ccccc2)C(=O)c2ccccc21 | 215 °C |  |  |  |  |  |  | 
31 | CNC(=O)OCc1cccc(COC(=O)NC)n1 | 136 °C |  |  |  |  |  |  | 
32 | CC(C)C=CC(C)C |  |  |  | 1.64 |  |  |  | 
33 | O=C(Nc1ccccc1)c1ccccc1I | 137 °C |  |  |  |  | 2.82 |  | 
34 | COc1cc2c3c(c4ccc(OC)c(OC)c4c2cc1OC)CN1CCC[C@H]1C3 | 220 °C |  |  |  |  |  |  | 
35 | O=Cc1ccc(O)c(Cl)c1 | 139 °C |  |  |  |  |  |  | 
36 | CC(O)c1ccco1 (centres undefined) |  | 162 °C |  |  |  |  |  | 
37 | Cc1cnc(C)cn1 | 15 °C | 155 °C |  |  |  |  |  | 
38 | C[N+](C)(C)CCOC(=O)CCC(=O)OCC[N+](C)(C)C.[Cl-].[Cl-] | 190 °C |  |  |  |  |  |  | 
39 | O=C(O)CCCCl | 16 °C |  |  |  |  |  |  | 
40 | CCn1cccc1 |  | 130 °C |  |  |  |  |  | 
41 | Clc1c(Cl)c(Cl)c2c(oc3c(Cl)c(Cl)c(Cl)c(Cl)c32)c1Cl | 258 °C |  |  | -11.4 |  |  | 11.9 | 
42 | CCSc1nnc(C(C)(C)C)c(=O)n1N | 95 °C |  |  | -5.12 |  |  |  | 
43 | CCOCN(C(=O)CCl)c1c(C)cccc1CC |  |  |  |  |  | 2.32 |  | 
44 | C=C1C2CCC(C2)C1(C)C (centres undefined) | 51.6 °C | 160 °C | not readily biodegradable | 0.399 |  |  |  | 
45 | NCC(F)(F)C(F)(F)F |  | 49 °C |  |  |  |  |  | 
46 | C#C[C@]1(O)CC[C@H]2[C@@H]3CCC4=C(CCC(=O)C4)[C@H]3CC[C@@]21C | 170 °C |  |  |  |  |  |  | 
47 | CCCC=C(C=O)CC |  | 195 °C | readily biodegradable | 0.107 |  |  |  | 
48 | O=C(Cl)C(F)(F)F | 146 °C | -27 °C |  |  |  |  |  | -3.35
49 | CCC(C)C(C)C (centres undefined) |  | 89.7 °C |  | 1.84 | 0.845 |  |  | 
50 | CC(C)C(C)C(C)C | -109 °C | 114 °C |  | 1.43 | 1.18 |  |  | 

Row | SMILES | melting point | boiling point | ready biodegradability | log10 vapour pressure (mmHg) | log10 biodegradation half-life (days) | log10 Koc (L/kg) | log10 Koa | log10 Henry constant (atm·m³/mol)
51 | CC(C)OC(=O)CCCCC(=O)OC(C)C | -1.1 °C |  |  |  |  |  |  | 
52 | CSCC[C@H](NC(C)=O)C(=O)O | 106 °C |  |  |  |  |  |  | 
53 | CC(C)CCCCCCO | 64.5 °C | 206 °C |  |  |  |  |  | 
54 | COc1cc([N+](=O)[O-])c2ncccc2c1 | 159 °C |  |  |  |  |  |  | 
55 | O=C(CCC(=O)Oc1ccccc1)Oc1ccccc1 | 121 °C | 330 °C |  |  |  |  |  | 
56 | COc1cccc(S)c1 |  | 224 °C |  |  |  |  |  | 
57 | CC(O)Cn1c(=O)c2c(ncn2C)n(C)c1=O (centres undefined) | 141 °C |  |  |  |  |  |  | 
58 | CC(C)CNCC(C)C | -73.5 °C | 140 °C | readily biodegradable | 0.862 |  |  |  | 
59 | CCCCCOC=O | -73.5 °C | 130 °C |  |  |  |  |  | 
60 | CN(C)C(=O)OC1=CC(=O)CC(C)(C)C1 | 45.5 °C |  |  |  |  |  |  | 
61 | Nc1ccc(-c2ccc(N)c(N)c2)cc1N | 176 °C |  |  |  |  |  |  | 
62 | CC1=C(/C=C/C(C)=C/C=C/C(C)=C/C=O)C(C)(C)CCC1 | 63 °C |  |  |  |  |  |  | 
63 | CCCCC(C)C(C)O (centres undefined) |  | 166 °C |  |  |  |  |  | 
64 | NS(=O)(=O)c1cc(C(=O)O)ccc1Cl | 257 °C |  |  |  |  |  |  | 
65 | Cc1cc(Cl)c(O)c(Cl)c1 | 39 °C | 231 °C |  |  |  |  |  | 
66 | CCC(CC)CC(C)(C)C |  | 147 °C |  |  |  |  |  | 
67 | C1CCN2C[C@@H]3C[C@@H](CN4CCCC[C@@H]34)[C@H]2C1 | 30.5 °C | 325 °C |  |  |  |  |  | 
68 | c1ccc2cc(Oc3ccc4ccccc4c3)ccc2c1 | 105 °C |  |  |  |  |  |  | 
69 | Cc1ccc(Cl)cc1O |  |  | not readily biodegradable |  |  |  |  | 
70 | O=C(CBr)c1ccccc1 | 50.5 °C |  |  |  |  |  |  | 
71 | CCCCCCCCN(C)CCCCCCCC | -30.1 °C |  |  |  |  |  |  | 
72 | c1ccc(C(c2ccccc2)(c2ccccc2)c2ccccc2)cc1 | 282 °C | 431 °C |  |  |  |  |  | 
73 | CCCCCCCCCCCCCC | 5.8 °C | 254 °C | readily biodegradable | -1.94 | 1.36 |  |  | 
74 | C=CC(Cl)CCl (centres undefined) | -61 °C | 116 °C | not readily biodegradable | 1.34 |  |  |  | 
